Structures can show the parent of a compound that is named as a salt.
System: jejunum
Assay: Transcriptional profiling on Affymetrix GeneChips, single dose, naïve mice: jejunum
Type: in vivo, C57BL/6 mice
Procedure: Treated mice were sacrificed at 2, 7, or 12 hours. Tissues (liver, spleen, kidney, jejunum, cortex, hippocampus, striatum and whole blood) were collected and analyzed by transcriptional profiling on mouse Affymetrix GeneChips.
Tissues (liver, spleen, kidney, jejunum, cortex, hippocampus, striatum and whole blood) were collected and analyzed by transcriptional profiling on mouse Affymetrix GeneChips.
Animals were exposed to CO2 and whole blood collected via cardiac puncture. Two 100 μl aliquots of whole blood were collected in 1.5 mL microcentrifuge tubes and snap frozen in liquid nitrogen. Peripheral (liver, spleen, kidney and jejunum) and CNS brain (cerebellum, hippocampus, striatum and cortex) tissues were harvested and snap frozen in liquid nitrogen, with special care taken to collect tissues of similar size and from the same location. All samples were stored at −80° C. until RNA extraction was conducted.
For RNA preparation, frozen tissues were placed in 2 mL RNAse-free 96-well blocks with 1.5 mL QIAzol Lysis Reagent (QIAgen) and a 3.2 mm stainless steel bead (BioSpec Products, Bartlesville, Okla.). Tissues were disrupted for four cycles of 45 seconds in a Mini-Beadbeater (Biospec Products). RNA was extracted in chloroform and the aqueous phase was mixed with an equal volume of 70% ethanol. Extracted RNA was applied to RNeasy 96 plates and purified by the spin method according to the manufacturer's protocol (RNeasy 96 Universal Tissue Protocol, QIAgen, Hilden Germany).
Automated sample amplifications and biotin labelings were carried out using the NuGEN Ovation RNA Amplification system V2 (Cat #3100), Ovation WB reagent (Cat #1300) and Encore Biotin module (Cat #4200) (NuGEN Technologies, Inc, San Carlos, Calif.) according to manufacturer's recommendations using an Arrayplex automated liquid handler (Beckman Coulter, Indianapolis, Ind.). Two micrograms of biotin labeled sscDNA probe were hybridized to Affymetrix GeneChip Affymetrix HT_MG-430_PM plate arrays with modified conditions as described in Allaire et al. Washing and staining of the hybridized arrays were completed as described in the GeneChip Expression analysis technical manual for HT plate arrays using the Genechip® Array Station (Affymetrix, Santa Clara, Calif.) with modifications as described in Allaire et al. The processed GeneChip® plate arrays were scanned using GeneTitan scanner (Affymetrix, Santa Clara, Calif.).
Affymetrix scans were subject to quality control (QC) measures. These tests included a visual inspection of the distribution of raw signal intensities and an assessment of RNA degradation, relative log expression (RLE), and normalized unsealed standard error (NUSE). All sample scans that passed these QC metrics were included in the analysis.
All CEL files were subjected to GC-content-based Robust Multi-array Average (GCRMA) normalization (version 2.20.0) (Irizarry R A, et al. Nucleic Acids Res 2003; 31:e15; Li C, et al. Genome Biol 2001; 2:[…]0032). Expression levels were log (base 2) transformed.
All calculations and analyses were carried out using R (version 2.11.1) and Bioconductor computational tools (Gentleman R. Springer Science+Business Media 2005).

For `COC(=O)/C=C/C(=O)O` [MMF, monomethyl fumarate], the “FC Akr1c12 (1422000_PM_at)” value (100MMF-vs-Veh, 12 h) was 1.52, the “FC Akr1c13 (1418672_PM_at)” value (100MMF-vs-Veh, 12 h) was 2.01 and the “FC Aldh1a7 (1418601_PM_at)” value (100MMF-vs-Veh, 12 h) was 1.74. For the same compound, the “FC Apob (1457554_PM_at)” value (100MMF-vs-Veh, 12 h) was −1.54, the “FC C030026M15Rik (1431418_PM_at)” value (100MMF-vs-Veh, 12 h) was −1.81 and the “FC Dio1 (1417991_PM_at)” value (100MMF-vs-Veh, 12 h) was −1.51. The “FC Ephx1 (1422438_PM_at)” value (100MMF-vs-Veh, 12 h) was 2.17, the “FC Gss (1448273_PM_at)” value (100MMF-vs-Veh, 12 h) was 1.57 and the “FC Gstm1 (1416416_PM_x_at)” value (100MMF-vs-Veh, 12 h) was 3.70. The “FC Gstm2 (1416411_PM_at)” value (100MMF-vs-Veh, 12 h) was 2.20, the “FC Kif1b (1451642_PM_at)” value (100MMF-vs-Veh, 12 h) was −1.51 and the “Number of genes, DMF Only / MMF Only” value (Jejunum) was 35. The “6-Sep, septin 6 (1424181_PM_at) differential expression” value (Jejunum, 2 hr) was 1.56, the “Areg (1421134_PM_at) differential expression” value (Jejunum, 2 hr) was 2.71 and the “Blvrb (1451386_PM_at) differential expression” value (Jejunum, 2 hr) was 1.57. For the same compound, the “Bmp2 (1423635_PM_at) differential expression” value (Jejunum, 2 hr) was −1.55, the “Cbr1 (1460196_PM_at) differential expression” value (Jejunum, 2 hr) was 1.53 and the “Dnase2a (1430135_PM_at) differential expression” value (Jejunum, 2 hr) was 1.79. The “Dppa5a (1416552_PM_at) differential expression” value (Jejunum, 2 hr) was 2.64, the “Ereg (1419431_PM_at) differential expression” value (Jejunum, 2 hr) was 2.00 and the “Ero1l (1419030_PM_at) differential expression” value (Jejunum, 2 hr) was 1.90. The “Esd (1441604_PM_at) differential expression” value (Jejunum, 2 hr) was 1.52, the “Figf (1438953_PM_at) differential expression” value (Jejunum, 2 hr) was 1.63 and the “G6pd2 /// G6pdx (1422327_PM_s_at) differential expression” value (Jejunum, 2 hr) was 1.74. For the same compound, the “Gabarapl1 (1416418_PM_at) differential expression” value (Jejunum, 2 hr) was 1.52, the “Gclc (1424296_PM_at) differential expression” value (Jejunum, 2 hr) was 3.99 and the “Gsr (1421816_PM_at) differential expression” value (Jejunum, 2 hr) was 2.19. For the same compound, the “Gss (1441931_PM_x_at) differential expression” value (Jejunum, 2 hr) was 1.92, the “Gsta3 (1423436_PM_at) differential expression” value (Jejunum, 2 hr) was 3.64 and the “Gsta4 (1416368_PM_at) differential expression” value (Jejunum, 2 hr) was 1.73. For the same compound, the “Gstm1 (1416416_PM_x_at) differential expression” value (Jejunum, 2 hr) was 2.38, the “Hfe (1422645_PM_at) differential expression” value (Jejunum, 2 hr) was 1.73 and the “Hmox1 (1448239_PM_at) differential expression” value (Jejunum, 2 hr) was 1.81. The “Htatip2 (1451814_PM_a_at) differential expression” value (Jejunum, 2 hr) was 1.53, the “Lpin2 (1452837_PM_at) differential expression” value (Jejunum, 2 hr) was 1.61 and the “Lrp8 (1440882_PM_at) differential expression” value (Jejunum, 2 hr) was 2.23. For the same compound, the “Mafg (1448916_PM_at) differential expression” value (Jejunum, 2 hr) was 1.95, the “Nqo1 (1423627_PM_at) differential expression” value (Jejunum, 2 hr) was 2.16 and the “Osgin1 (1424022_PM_at) differential expression” value (Jejunum, 2 hr) was 1.98. The “Pgm2 (1437240_PM_at) differential expression” value (Jejunum, 2 hr) was 2.09, the “Prr5l (1452834_PM_at) differential expression” value (Jejunum, 2 hr) was −1.64 and the “Prss8 (1418320_PM_at) differential expression” value (Jejunum, 2 hr) was 2.41. The “Setd4 (1435405_PM_at) differential expression” value (Jejunum, 2 hr) was 2.11, the “Slc2a1 (1426600_PM_at) differential expression” value (Jejunum, 2 hr) was 1.68 and the “Slc40a1 (1417061_PM_at) differential expression” value (Jejunum, 2 hr) was 2.73. For the same compound, the “Slc48a1 (1450410_PM_a_at) differential expression” value (Jejunum, 2 hr) was 1.62, the “Slfn2 (1450165_PM_at) differential expression” value (Jejunum, 2 hr) was −1.82 and the “Sos1 (1421886_PM_at) differential expression” value (Jejunum, 2 hr) was −1.57. For the same compound, the “Srxn1 (1425351_PM_at) differential expression” value (Jejunum, 2 hr) was 1.77, the “St3gal6 (1449078_PM_at) differential expression” value (Jejunum, 2 hr) was 1.52 and the “Tkt (1436605_PM_at) differential expression” value (Jejunum, 2 hr) was 1.73. The “Tnfaip3 (1433699_PM_at) differential expression” value (Jejunum, 2 hr) was −1.67, the “Tox3 (1436600_PM_at) differential expression” value (Jejunum, 2 hr) was 1.81 and the “Ugt2b5 (1419622_PM_at) differential expression” value (Jejunum, 2 hr) was 3.13. The “Abcc2 (1450109_PM_s_at) differential expression” value (Jejunum, 7 hr) was 1.51, the “Abcc3 (1428988_PM_at) differential expression” value (Jejunum, 7 hr) was 2.26 and the “Acsm5 (1437662_PM_at) differential expression” value (Jejunum, 7 hr) was 1.71. For the same compound, the “Akr1c12 /// Akr1c13 (1450455_PM_s_at) differential expression” value (Jejunum, 7 hr) was 1.58, the “Akr1c13 (1418672_PM_at) differential expression” value (Jejunum, 7 hr) was 1.86 and the “Aldh1a7 (1418601_PM_at) differential expression” value (Jejunum, 7 hr) was 1.86. The “Areg (1421134_PM_at) differential expression” value (Jejunum, 7 hr) was 2.93, the “Asns (1451095_PM_at) differential expression” value (Jejunum, 7 hr) was 1.60 and the “Blvrb (1451386_PM_at) differential expression” value (Jejunum, 7 hr) was 1.55. For the same compound, the “Capn13 (1437960_PM_at) differential expression” value (Jejunum, 7 hr) was −1.75, the “Cbr1 (1460196_PM_at) differential expression” value (Jejunum, 7 hr) was 1.83 and the “Ces1e (1419510_PM_at) differential expression” value (Jejunum, 7 hr) was 2.44. The “Ddc (1426215_PM_at) differential expression” value (Jejunum, 7 hr) was 2.03, the “Dppa5a (1416552_PM_at) differential expression” value (Jejunum, 7 hr) was 1.88 and the “Enkur (1428960_PM_at) differential expression” value (Jejunum, 7 hr) was −1.56. The “Entpd5 (1433763_PM_at) differential expression” value (Jejunum, 7 hr) was 1.60, the “Esd (1441604_PM_at) differential expression” value (Jejunum, 7 hr) was 2.15 and the “Fam162a (1451385_PM_at) differential expression” value (Jejunum, 7 hr) was 1.67. The “G6pd2 /// G6pdx (1422327_PM_s_at) differential expression” value (Jejunum, 7 hr) was 2.06, the “G6pdx (1448354_PM_at) differential expression” value (Jejunum, 7 hr) was 1.76 and the “Gclc (1424296_PM_at) differential expression” value (Jejunum, 7 hr) was 2.87. The “Gm3776 /// Gsta1 /// Gsta2 (1421041_PM_s_at) differential expression” value (Jejunum, 7 hr) was 1.90, the “Gm14446 (1435529_PM_at) differential expression” value (Jejunum, 7 hr) was −1.65 and the “Gpx2 (1449279_PM_at) differential expression” value (Jejunum, 7 hr) was 1.53. The “Gsr (1421816_PM_at) differential expression” value (Jejunum, 7 hr) was 3.13, the “Gss (1441931_PM_x_at) differential expression” value (Jejunum, 7 hr) was 2.20 and the “Gsta3 (1423436_PM_at) differential expression” value (Jejunum, 7 hr) was 5.71. The “Gsta4 (1416368_PM_at) differential expression” value (Jejunum, 7 hr) was 2.52, the “Gstm1 (1416416_PM_x_at) differential expression” value (Jejunum, 7 hr) was 4.80 and the “Gstm2 (1416411_PM_at) differential expression” value (Jejunum, 7 hr) was 2.09. For the same compound, the “Gstm4 (1424835_PM_at) differential expression” value (Jejunum, 7 hr) was 5.75 and the “Gstm6 (1422072_PM_a_at) differential expression” value (Jejunum, 7 hr) was 2.23.
